Where two headings read alike, the source gives them in different places.
Columns and labels:
[1] = molecular target: TLR1/TLR2 (Mus musculus, UniProt Q9EPQ1+Q9QUN7); assay: TNF-α release from thioglycolate-elicited mouse peritoneal macrophages (ELISA); details: for Emax: 4 h, read-out: Efficacy (magnitude) of response versus diprovocim-1 (100%), mouse macrophages
[2] = molecular target: TLR1/TLR2 (Homo sapiens, UniProt O60603+Q15399); assay: TNF-α release from PMA-differentiated human THP-1 cells (ELISA); details: for Emax: THP-1, 4 h, read-out: Efficacy (magnitude) of response versus diprovocim-1 (100%), THP-1;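 for all read-outs here: cells exposed to graded compound concentrations for 4 h, TNF-α quantified in supernatant, LPS as positive and DMSO as negative control, values are duplicate means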
Chain of TLR1/TLR2 (Homo sapiens, UniProt O60603+Q15399) (Q15399 25-786): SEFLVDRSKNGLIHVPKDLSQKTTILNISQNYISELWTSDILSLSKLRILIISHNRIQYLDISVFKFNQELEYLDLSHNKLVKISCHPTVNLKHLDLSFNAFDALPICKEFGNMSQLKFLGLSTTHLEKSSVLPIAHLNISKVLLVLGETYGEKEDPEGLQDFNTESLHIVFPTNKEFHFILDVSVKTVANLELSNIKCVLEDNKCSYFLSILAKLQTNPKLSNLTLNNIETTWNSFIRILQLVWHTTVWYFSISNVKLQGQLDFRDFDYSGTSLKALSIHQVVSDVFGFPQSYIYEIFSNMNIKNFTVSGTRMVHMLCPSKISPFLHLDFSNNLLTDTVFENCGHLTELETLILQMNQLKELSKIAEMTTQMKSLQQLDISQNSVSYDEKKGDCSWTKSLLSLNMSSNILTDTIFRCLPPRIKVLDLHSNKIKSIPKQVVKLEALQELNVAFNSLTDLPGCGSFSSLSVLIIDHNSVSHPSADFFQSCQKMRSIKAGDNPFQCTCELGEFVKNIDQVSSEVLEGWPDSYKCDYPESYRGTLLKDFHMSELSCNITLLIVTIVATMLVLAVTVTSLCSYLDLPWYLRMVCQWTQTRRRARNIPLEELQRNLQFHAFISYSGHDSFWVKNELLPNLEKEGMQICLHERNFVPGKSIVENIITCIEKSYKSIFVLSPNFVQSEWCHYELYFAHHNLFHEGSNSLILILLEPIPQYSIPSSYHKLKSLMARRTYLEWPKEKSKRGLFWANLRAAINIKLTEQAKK
Chain of TLR1/TLR2 (Homo sapiens, UniProt O60603+Q15399) (O60603 21-784): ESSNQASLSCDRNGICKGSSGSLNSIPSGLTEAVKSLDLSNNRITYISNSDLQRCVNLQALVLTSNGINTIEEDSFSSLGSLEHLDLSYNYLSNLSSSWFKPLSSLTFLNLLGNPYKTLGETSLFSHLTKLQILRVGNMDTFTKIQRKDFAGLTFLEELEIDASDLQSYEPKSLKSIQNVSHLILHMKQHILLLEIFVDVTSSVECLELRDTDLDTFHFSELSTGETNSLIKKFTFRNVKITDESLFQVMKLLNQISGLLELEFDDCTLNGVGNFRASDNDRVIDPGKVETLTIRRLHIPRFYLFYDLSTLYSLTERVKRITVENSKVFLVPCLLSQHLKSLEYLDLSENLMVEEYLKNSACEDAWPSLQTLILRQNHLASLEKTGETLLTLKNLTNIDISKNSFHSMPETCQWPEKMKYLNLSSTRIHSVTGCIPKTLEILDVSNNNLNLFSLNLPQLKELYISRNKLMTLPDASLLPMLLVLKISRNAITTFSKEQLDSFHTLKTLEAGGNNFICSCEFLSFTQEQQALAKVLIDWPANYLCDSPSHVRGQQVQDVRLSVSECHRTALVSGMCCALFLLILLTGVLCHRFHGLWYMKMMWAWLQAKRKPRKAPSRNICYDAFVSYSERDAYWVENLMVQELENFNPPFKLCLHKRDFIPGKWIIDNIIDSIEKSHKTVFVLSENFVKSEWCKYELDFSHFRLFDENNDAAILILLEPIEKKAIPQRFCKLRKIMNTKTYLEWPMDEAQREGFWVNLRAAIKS
Method: THP-1 (American Type Culture Collection) cells, a human monocytic leukemia cell line, were differentiated by treatment with 100 nM PMA (Sigma) in Roswell Park Memorial Institute (RPMI) cell culture medium [RPMI containing 10% vol/vol FBS (Gemini Bio Products), 1% penicillin and streptomycin (Life Technologies)] for 24 h. After that, the cells were washed with PBS and cultured in fresh RPMI cell culture medium for 24 h before use in studies. PMA-differentiated THP-1 cells were seeded onto 96-well plates at 0.5×10^5 cells per well and treated with systematically varied concentrations of the candidate compounds (dissolved in DMSO, and the final assay DMSO concentration (0.1%) was kept constant in all experiments) for 4 h. Ultra-pure LPS (dissolved in H2O, Enzo Life Sciences) was assessed alongside the compounds as a positive control and DMSO treated control was used as a negative control. Human TNF-α in the supernatants was measured by ELISA (eBioscience). This assay was used for establishing dose-response curves and measured EC50's. EC50's were calculated by Graphpad Prism. All data is the mean of duplicates and SD is within +10% of mean.

[3] = read-out: EC50 (nM) (mouse): EC50 TNF-α release from mouse macrophages, Table 3
[4] = read-out: EC50 (nM) (THP-1): EC50 TNF-α release from human THP-1 cells, Table 3
[5] = read-out: EC50 (nM) (mouse): EC50 TNF-α release from mouse macrophages, Table 4
[6] = read-out: EC50 (nM) (THP-1): EC50 TNF-α release from human THP-1 cells, Table 4

Chain of TLR1/TLR2 (Mus musculus, UniProt Q9EPQ1+Q9QUN7) (Q9EPQ1 26-795): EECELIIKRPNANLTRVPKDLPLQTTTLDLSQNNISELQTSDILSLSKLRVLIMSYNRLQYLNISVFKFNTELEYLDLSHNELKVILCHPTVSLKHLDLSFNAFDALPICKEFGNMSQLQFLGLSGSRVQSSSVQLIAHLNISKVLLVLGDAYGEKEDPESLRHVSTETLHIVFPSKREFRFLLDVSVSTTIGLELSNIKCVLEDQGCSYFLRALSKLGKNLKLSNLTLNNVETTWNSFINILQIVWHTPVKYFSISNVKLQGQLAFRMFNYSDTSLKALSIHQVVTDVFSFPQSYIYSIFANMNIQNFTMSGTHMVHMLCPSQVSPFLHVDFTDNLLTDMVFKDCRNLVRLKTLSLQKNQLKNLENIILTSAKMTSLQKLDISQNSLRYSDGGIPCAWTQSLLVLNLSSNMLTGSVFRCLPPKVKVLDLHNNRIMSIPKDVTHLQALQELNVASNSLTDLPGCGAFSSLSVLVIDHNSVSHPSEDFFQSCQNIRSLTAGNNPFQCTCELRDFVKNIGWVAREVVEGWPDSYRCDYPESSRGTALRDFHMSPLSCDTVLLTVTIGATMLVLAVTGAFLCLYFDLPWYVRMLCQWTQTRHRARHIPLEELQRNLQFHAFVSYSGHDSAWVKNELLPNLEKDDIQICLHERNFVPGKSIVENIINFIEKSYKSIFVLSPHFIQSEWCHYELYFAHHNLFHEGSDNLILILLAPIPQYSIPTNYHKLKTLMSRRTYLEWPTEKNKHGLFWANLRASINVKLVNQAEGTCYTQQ
Chain of TLR1/TLR2 (Mus musculus, UniProt Q9EPQ1+Q9QUN7) (Q9QUN7 25-784): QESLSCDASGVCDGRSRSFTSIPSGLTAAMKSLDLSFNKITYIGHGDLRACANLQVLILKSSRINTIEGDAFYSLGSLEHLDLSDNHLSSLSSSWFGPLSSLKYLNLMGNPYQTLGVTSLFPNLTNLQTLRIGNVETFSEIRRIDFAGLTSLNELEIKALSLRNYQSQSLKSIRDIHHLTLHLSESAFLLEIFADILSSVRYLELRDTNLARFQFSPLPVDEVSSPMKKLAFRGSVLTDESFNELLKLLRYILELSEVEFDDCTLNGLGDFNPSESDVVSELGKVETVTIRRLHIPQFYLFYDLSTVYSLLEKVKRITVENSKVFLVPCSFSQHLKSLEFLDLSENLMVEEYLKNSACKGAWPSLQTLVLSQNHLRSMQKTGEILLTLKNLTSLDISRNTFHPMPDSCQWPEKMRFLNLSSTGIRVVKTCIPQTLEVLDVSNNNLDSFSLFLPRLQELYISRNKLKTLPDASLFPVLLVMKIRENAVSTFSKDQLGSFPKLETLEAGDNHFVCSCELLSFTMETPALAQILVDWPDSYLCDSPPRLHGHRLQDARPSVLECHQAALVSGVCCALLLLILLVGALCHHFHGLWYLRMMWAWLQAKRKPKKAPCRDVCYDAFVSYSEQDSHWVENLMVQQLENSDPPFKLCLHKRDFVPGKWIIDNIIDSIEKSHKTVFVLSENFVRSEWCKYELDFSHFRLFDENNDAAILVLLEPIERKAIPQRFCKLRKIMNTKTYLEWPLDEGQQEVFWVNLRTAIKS

O=C(CO)OCCCCCCCCCCCCNC(=O)[C@@H]1CN(C(=O)c2ccc(C(=O)N3C[C@@H](C(=O)N[C@H]4C[C@@H]4c4ccccc4)[C@H](C(=O)N[C@H]4C[C@@H]4c4ccccc4)C3)cc2)C[C@H]1C(=O)N[C@H]1C[C@@H]1c1ccccc1 [Compound 45, 12-((3S,4S)-1-(4-((3S,4S)-3,4-Bis(((1S,2R)-2-phenylcyclopropyl)carbamoyl)pyrrolidine-1-carbonyl)benzoyl)-4-(((1S,2R)-2-phenylcyclo-propyl)carbamoyl)pyrrolidine-3-carboxamido)dodecyl 2-hydroxyacetate]
EC50 [1]: 0.7 to 5 nM
Emax [1]: 140%
EC50 [1, 3]: 0.7 nM
EC50 [2]: 0.05 to 0.2 nM
Emax [2]: 100%
EC50 [2, 4]: 0.2 nM

O=C(COCc1ccccc1)OCCCCCCCCCCCCNC(=O)[C@@H]1CN(C(=O)c2ccc(C(=O)N3C[C@@H](C(=O)N[C@H]4C[C@@H]4c4ccccc4)[C@H](C(=O)N[C@H]4C[C@@H]4c4ccccc4)C3)cc2)C[C@H]1C(=O)N[C@H]1C[C@@H]1c1ccccc1 [Compound 46, 12-((3S,4S)-1-(4-((3S,4S)-3,4-Bis(((1S,2R)-2-phenylcyclopropyl)carbamoyl)pyrrolidine-1-carbonyl)benzoyl)-4-(((1S,2R)-2-phenylcyclopropyl)-carbamoyl)pyrrolidine-3-carboxamido)-dodecyl 2-(benzyloxy)acetate]
EC50 [1]: 0.7 to 5 nM
Emax [1]: 220%
EC50 [1, 3]: 5.3 nM
EC50 [2]: 0.05 to 0.2 nM
Emax [2]: 130%
EC50 [2, 4]: 0.06 nM

CC(C)(C)OCC(=O)OCCCCCCCCCCCCNC(=O)[C@@H]1CN(C(=O)c2ccc(C(=O)N3C[C@@H](C(=O)N[C@H]4C[C@@H]4c4ccccc4)[C@H](C(=O)N[C@H]4C[C@@H]4c4ccccc4)C3)cc2)C[C@H]1C(=O)N[C@H]1C[C@@H]1c1ccccc1 [Compound 47, 12-((3S,4S)-1-(4-((3S,4S)-3,4-Bis(((1S,2R)-2-phenylcyclopropyl)carbamoyl)pyrrolidine-1-carbonyl)benzoyl)-4-(((1S,2R)-2-phenylcyclopropyl)-carbamoyl)pyrrolidine-3-carboxamido)dodecyl 2-(tert-butoxy)acetate]
Emax [1]: 230%
EC50 [1, 3]: 5 nM
Emax [2]: 100%
EC50 [2, 4]: 0.65 nM

CC(C)(C)OC(=O)NCCOCCCCCCCCCCCCNC(=O)[C@@H]1CN(C(=O)c2ccc(C(=O)N3C[C@@H](C(=O)N[C@H]4C[C@@H]4c4ccccc4)[C@H](C(=O)N[C@H]4C[C@@H]4c4ccccc4)C3)cc2)C[C@H]1C(=O)N[C@H]1C[C@@H]1c1ccccc1 [Compound 48, tert-Butyl (2-((12-((3S,4S)-1-(4-((3S,4S)-3,4-bis(((1S,2R)-2-phenylcyclopropyl)carbamoyl)-pyrrolidine-1-carbonyl)-benzoyl)-4-(((1S,2R)-2-phenylcyclopropyl)carbamoyl)pyrrolidine-3-carbox-amido)dodecyl)oxy)ethyl)carbamate]
Emax [1]: 220%
EC50 [1, 3]: 6.3 nM
Emax [2]: 100%
EC50 [2, 4]: 3 nM

CC(C)(C)OC(=O)COCCCCCCCCCCCCNC(=O)[C@@H]1CN(C(=O)c2ccc(C(=O)N3C[C@@H](C(=O)N[C@H]4C[C@@H]4c4ccccc4)[C@H](C(=O)N[C@H]4C[C@@H]4c4ccccc4)C3)cc2)C[C@H]1C(=O)N[C@H]1C[C@@H]1c1ccccc1 [Compound 49, tert-Butyl 2-((12-((3S,4S)-1-(4-((3S,4S)-3,4-bis(((1S,2R)-2-phenylcyclopropyl)carbamoyl)-pyrrolidine-1-carbonyl)benzoyl)-4-(((1S,2R)-2-phenylcyclopropyl)carbamoyl)pyrrolidine-3-carboxamido)dodecyl)oxy)acetate]
Emax [1]: 270%
EC50 [1, 3]: 1.8 nM
Emax [2]: 100%
EC50 [2, 4]: 15 nM

COC(=O)CNC(=O)OCCCCCCCCCCCCNC(=O)[C@@H]1CN(C(=O)c2ccc(C(=O)N3C[C@@H](C(=O)N[C@H]4C[C@@H]4c4ccccc4)[C@H](C(=O)N[C@H]4C[C@@H]4c4ccccc4)C3)cc2)C[C@H]1C(=O)N[C@H]1C[C@@H]1c1ccccc1 [Compound 50, Methyl 2-((((12-((3S,4S)-1-(4-((3S,4S)-3,4-bis-(((1S,2R)-2-phenylcyclopropyl)carbamoyl)pyrrolidine-1-carbonyl)benzoyl)-4-(((1S,2R)-2-phenylcyclopropyl)-carbamoyl)pyrrolidine-3-carboxamido)dodecyl)oxy)-carbonyl)amino)acetate]
Emax [1]: 90%
EC50 [1, 3]: 6 nM
Emax [2]: 90%
EC50 [2, 4]: 0.2 nM

O=C(NCCCCCCCCCCCCOCc1ccc([N+](=O)[O-])cc1)[C@@H]1CN(C(=O)c2ccc(C(=O)N3C[C@@H](C(=O)N[C@H]4C[C@@H]4c4ccccc4)[C@H](C(=O)N[C@H]4C[C@@H]4c4ccccc4)C3)cc2)C[C@H]1C(=O)N[C@H]1C[C@@H]1c1ccccc1 [Compound 51, (3S,4S)-1-(4-((3S,4S)-3,4-Bis(((1S,2R)-2-phenylcyclo-propyl)carbamoyl)pyrrolidine-1-carbonyl)-benzoyl)-N^3-(12-((4-nitrobenzyl)oxy)dodecyl)-N^4-((1S,2R)-2-phenyl-cyclopropyl)pyrrolidine-3,4-dicarboxamide]
Emax [1]: 230%
EC50 [1, 3]: 0.85 nM
Emax [2]: 110%
EC50 [2, 4]: 0.25 nM

Nc1ccc(COCCCCCCCCCCCCNC(=O)[C@@H]2CN(C(=O)c3ccc(C(=O)N4C[C@@H](C(=O)N[C@H]5C[C@@H]5c5ccccc5)[C@H](C(=O)N[C@H]5C[C@@H]5c5ccccc5)C4)cc3)C[C@H]2C(=O)N[C@H]2C[C@@H]2c2ccccc2)cc1 [Compound 52, (3S,4S)—N^3-(12-((4-Aminobenzyl)oxy)dodecyl)-1-(4-((3S,4S)-3,4-bis(((1S,2R)-2-phenyl-cyclopropyl)carbamoyl)pyrrolidine-1-carbonyl)-benzoyl)-N^4-((1S,2R)-2-phenylcyclopropyl)pyrrolidine-3,4-dicarboxamide]
Emax [1]: 130%
EC50 [1, 3]: 2 nM
Emax [2]: 90%
EC50 [2, 4]: 0.26 nM

C#CCN(C)CC(=O)OCCCCCCCCCCCCNC(=O)[C@@H]1CN(C(=O)c2ccc(C(=O)N3C[C@@H](C(=O)N[C@H]4C[C@@H]4c4ccccc4)[C@H](C(=O)N[C@H]4C[C@@H]4c4ccccc4)C3)cc2)C[C@H]1C(=O)N[C@H]1C[C@@H]1c1ccccc1 [Compound 53, 12-((3S,4S)-1-(4-((3S,4S)-3,4-Bis(((1S,2R)-2-phenylcyclopropyl)carbamoyl)pyrrolidine-1-carbonyl)-benzoyl)-4-(((1S,2R)-2-phenylcyclopropyl)carbamoyl)-pyrrolidine-3-carboxamido)dodecyl 2-(methyl(prop-2-yn-1-yl)amino)acetate]
Emax [1]: 100%
EC50 [1, 3]: 5.3 nM
Emax [2]: 40%
EC50 [2, 4]: 0.59 nM

C#CCOCC(=O)OCCCCCCCCCCCCNC(=O)[C@@H]1CN(C(=O)c2ccc(C(=O)N3C[C@@H](C(=O)N[C@H]4C[C@@H]4c4ccccc4)[C@H](C(=O)N[C@H]4C[C@@H]4c4ccccc4)C3)cc2)C[C@H]1C(=O)N[C@H]1C[C@@H]1c1ccccc1 [Compound 54, 12-((3S,4S)-1-(4-((3S,4S)-3,4-Bis(((1S,2R)-2-phenylcyclopropyl)carbamoyl)pyrrolidine-1-carbonyl)benzoyl)-4-(((1S,2R)-2-phenylcyclopropyl)-carbamoyl)pyrrolidine-3-carboxamido)dodecyl 2-(prop-2-yn-1-yloxy)acetate]
Emax [1]: 110%
EC50 [1, 3]: 4.9 nM
Emax [2]: 30%
EC50 [2, 4]: 0.29 nM

CC(C)(C)OC(=O)NCCOCCOCCOCCOCCC(=O)OCCCCCCCCCCCCNC(=O)[C@@H]1CN(C(=O)c2ccc(C(=O)N3C[C@@H](C(=O)N[C@H]4C[C@@H]4c4ccccc4)[C@H](C(=O)N[C@H]4C[C@@H]4c4ccccc4)C3)cc2)C[C@H]1C(=O)N[C@H]1C[C@@H]1c1ccccc1 [Compound 55, 12-((3S,4S)-1-(4-((3S,4S)-3,4-Bis(((1S,2R)-2-phenyl-cyclopropyl)carbamoyl)pyrrolidine-1-carbonyl)-benzoyl)-4-(((1S,2R)-2-phenylcyclopropyl)carbamoyl)-pyrrolidine-3-carboxamido)-dodecyl 2,2-dimethyl-4-oxo-3,8,11,14,17-pentaoxa-5-azaicosan-20-oate]
Emax [1]: 150%
EC50 [1, 5]: 3.4 nM
reduction in activity relative to diprovocim-1 [2]: two-fold reduction in activity
Emax [2]: 90%
EC50 [2, 6]: 0.26 nM

CC(C)(C)OC(=O)CCOCCOCCOCCNC(=O)CCCCCCCCCCCNC(=O)[C@@H]1CN(C(=O)c2ccc(C(=O)N3C[C@@H](C(=O)N[C@H]4C[C@@H]4c4ccccc4)[C@H](C(=O)N[C@H]4C[C@@H]4c4ccccc4)C3)cc2)C[C@H]1C(=O)N[C@H]1C[C@@H]1c1ccccc1 [Compound 56, tert-Butyl 1-((3S,4S)-1-(4-((3S,4S)-3,4-bis(((1S,2R)-2-phenylcyclopropyl)carbamoyl)pyrrolidine-1carbonyl)benzoyl)-4-(((1S,2R)-2-phenylcyclopropyl)-carbamoyl)pyrrolidin-3-yl)-1,14-dioxo-18,21,24-trioxa-2,15-diazaheptacosan-27-oate]
Emax [1]: 140%
EC50 [1, 5]: 21 nM
Emax [2]: 100%
EC50 [2, 6]: 2.8 nM

C[C@H](NC(=O)OC(C)(C)C)C(=O)OCCCCCCCCCCCCNC(=O)[C@@H]1CN(C(=O)c2ccc(C(=O)N3C[C@@H](C(=O)N[C@H]4C[C@@H]4c4ccccc4)[C@H](C(=O)N[C@H]4C[C@@H]4c4ccccc4)C3)cc2)C[C@H]1C(=O)N[C@H]1C[C@@H]1c1ccccc1 [Compound 57, (S)-12-((3S,4S)-1-(4-((3S,4S)-3,4-Bis(((1S,2R)-2-phenylcyclopropyl)carbamoyl)pyrrolidine-1-carbonyl)-benzoyl)-4-(((1S,2R)-2-phenylcyclopropyl)carbamoyl)-pyrrolidine-3-carboxamido)-dodecyl 2-((tert-butoxycarbonyl)amino)propanoate]
Emax [1]: 200%
EC50 ([1]; read-out: EC50 (nM) (mouse): EC50 TNF-α release from mouse macrophages, Table 5): 0.67 nM
Emax [2]: 80%
EC50 ([2]; read-out: EC50 (nM) (THP-1): EC50 TNF-α release from human THP-1 cells, Table 5): 0.25 nM

From patent US20250367166A1, “NEXT GENERATION DIPROVOCIMS THAT ACTIVATE THE INNATE AND ADAPTIVE IMMUNE RESPONSE” (The Scripps Research Institute, priority 2022, published 2025)
